Source: patent US6469055B2, “Compositions and methods for treatment of neurological disorders and neurodegenerative diseases” (Massachusetts Institute of Technology, priority 1996, dated 2002)
Entries after “also recorded” stand apart in the source; their conditions may differ.

Experiments:
[1] = test system: APP holoprotein; assay: Brain APP holoprotein in rats injected with p-chloroamphetamine (PCA) with or without aspirin; type: in vivo, rat; conditions: rats injected with PCA; striatum or hippocampus
Excerpt: Neuronal injury can stimulate prostaglandin production., and thereby stimulate APP overexpression. We injected rats with para-chloroamphetamine (PCA), a neurotoxin which causes a loss of serotoninergic terminals in the brain.

[2] = test system: serotonin release; assay: Serotonin release in the striatum by microdialysis; type: in vivo, rat; conditions: rats, chronic treatment with PCA
[3] = 100-150 mg indomethacin, 6 months, mild or moderately impaired Alzheimer's disease patients; cited from earlier work
[4] = test system: PI hydrolysis; assay: PI hydrolysis in cultured astrocytes; type: cell-based, rat; conditions: NE 50 μM, 1 h
Method: (§1) Assays of PI hydrolysis are conducted as previously reported. Also, measurements of APPs are conducted as previously reported.

[5] = test system: cellular cAMP levels; assay: cAMP assay in cultured astrocytes; type: cell-based, rat
Method: In brief, after aspirating the medium and rinsing twice with 1 ml ice cold PBS, the cells were scraped in 0.8 ml ice cold ethanol and sonicated. […] After resuspension in 120 μl Tris/EDTA buffer, two duplicate samples of 50 μl each were mixed with the binding protein, [8-^3H] adenosine 3′, 5′-cyclic phosphate tracer and incubated at 2-4° C. for 2 h. A charcoal suspension (100 μl) was added to the samples before centrifugation and 200 μl of the supernatant were removed for. scintillation counting. The amount of cyclic AMP (pmol/mg protein) was estimated by comparing to known standards, and normalized to the amounts of whole cell protein as determined by the bicinchoninic acid assay (Sigma).

[6] = test system: glial fibrillary acidic protein (GFAP); assay: GFAP protein in cultured astrocytes, Western blot; type: cell-based, rat
Method: To detect cell-associated protein (APP or GFAP), astrocytes from 35 mm dishes are scraped in lysis buffer (60 mM Tris/HCl, 4% SDS, 20% glycerol, 1 mM dithiothreitol), ultrasonicated and boiled for 5 min. […] Bromphenol blue (0.1%) is added to each sample and equal amounts of protein (˜75 mg/lane) are loaded on 10% SDS-polyacrylamide gels.
(§3) The amount of media or cell protein loaded for sodium dodecyl sulfate-polyacrylamide gel electrophoresis (10-20% SDS PAGE; Bio-Rad) was normalized for the amount of protein per sample. […] After 2×10 min rinses in TBST, the membranes were incubated in TBST containing an appropriate antibody. Monoclonal antibodies 22C11 and GFAP (both from Boehringer-Mannheim) were used to detect the N-terminus of APP and glial fibrillary acidic protein respectively; antisera R37 and R98 (gifts of Dr. F. Kametani, Tokyo Institute of Psychiatry) were used to detected the C-terminus and KPI motifs of APP respectively; antiserum C8 (gift of Dr. D. Selkoe, Women's Hospital, Harvard Medical School, Cambridge, Mass.) was used to detect the C-terminus of APP.
After an overnight incubation, membranes were rinsed in TBST before being treated for 1h with a peroxidase-linked secondary antibody. After several rinses in TBST, protein bands were visualized on Kodak X-AR films by an enhanced chemiluminescence method (Amersham). […]

[7] = test system: APP mRNA; assay: APP mRNA, Northern blot, cultured cortical astrocytes
Method: Pharmacological manipulations are performed in serum-free media on 7-14 DIV confluent astrocytes.
Total RNA from astrocytes grown on 100 mm dishes is extracted by the acid guanidium thiocyanate-phenol-chloroform method. […] In brief, the medium was aspirated and the cells were scraped in 1 mL of TRI Reagent. After incubation for 15 min at room temperature, 0.2 ml chloroform was added, mixed vigorously with TRI Reagent and the mixture was stored for another 15 min at room temperature. After centrifugation at 12,000 g for 15 min, 0.5 ml isopropanol was added to the aqueous phase of the mixture to precipitate RNA. The RNA pellet collected by centrifugation (12,000 g, 15 min at 4° C.) was washed with 70% ethanol. once and solubilized in an appropriate amount of Formazol (Molecular Research Center, Cincinnati, Ohio). […] RNA was blotted onto Hybond polyvinyl membranes by overnight capillary transfer and fixed onto the membranes by UV light illumination. […] Membranes were dried and exposed to Kodak X-ray film for 24-48 h with an Amersham enhancer sheet. The relative amounts of mRNA obtained by hybridization were estimated using densitometric analysis of autoradiographs. The levels of APP mRNA were normalized to the amounts of G3PDH mRNA and expressed as a ratio to the levels of untreated, control cells.

[8] = test system: APP holoprotein; assay: Cell-associated APP (APP holoprotein), Western blot, cultured cortical astrocytes
Method: Astrocytes are isolated from cortices from postnatal rats. […] In brief, dissected cortices were dissociated by trypsinization and trituration through a flame-polished Pasteur pipette. Cells were plated onto poly-L-lysine coated 35- or 100 mm culture dishes at densities of about 10-25 cells/mm^2. […] Media are changed twice weekly. […] Pharmacological manipulations are performed in serum-free media on 7-14 DIV confluent astrocytes.
To detect cell-associated protein (APP or GFAP), astrocytes from 35 mm dishes are scraped in lysis buffer (60 mM Tris/HCl, 4% SDS, 20% glycerol, 1 mM dithiothreitol), ultrasonicated and boiled for 5 min. The total amount of cell protein per dish, estimated using the bicinchoninic acid assay, is not altered by pharmacological treatments. Bromphenol blue (0.1%) is added to each sample and equal amounts of protein (˜75 mg/lane) are loaded on 10% SDS-polyacrylamide gels.
as §3
After an overnight incubation, membranes were rinsed in TBST before being treated for 1h with a peroxidase-linked secondary antibody. After several rinses in TBST, protein bands were visualized on Kodak X-AR films by an enhanced chemiluminescence method (Amersham). Optical densities of the protein bands were quantitated by laser scanning densitometry (LKB, Bromma, Sweden), and normalized to the densities of those bands generated under control conditions.

[9] = test system: astrocytes; assay: Process formation of cultured astrocytes; type: cell-based, rat
[10] = test system: secreted APP (APPs); assay: APPs secretion from cultured neurons; type: cell-based; conditions: DFP
Excerpt: (§2) Treatment of cultured astroyctes with DFU (A) or of cultured neurons with DFP (B) promotes APPs secretion and decreases the levels of amyloidogenic APP holoprotein in cultured.

[11] = test system: secreted APP (APPs); assay: APPs secretion into the media of cultured cortical astrocytes, Western blot; type: cell-based, rat
Method: Astrocytes are isolated from cortices from postnatal rats. […] Media are changed twice weekly.
To detect secreted APP, culture media was collected after drug treatments and phenylmethylsulfonyl fluoride was added to a final concentration of 2 mM. The media samples were then applied to Sephadex PD-10 desalting columns (Pharmacia) and eluted with distilled water. Column eluates were frozen and dried by vacuum centrifugation. The lyophilized proteins were reconstituted in 25 μL water followed by 25 μL of 2X Laemmli gel loading buffer, and boiled for 5 min.
as §1

[12] = test system: APP holoprotein; assay: APP holoprotein in cultured neurons; type: cell-based; conditions: DFP
Excerpt: as §2

[13] = test system: APP mRNA; conditions: dibutyryl cAMP in serum-containing medium, rat glioma cells; cited from earlier work
[14] = test system: APP synthesis; assay: APP synthesis (APP mRNA and holoprotein) in cultured cortical astrocytes; type: cell-based, rat; conditions: PG E2 10 μM, 6 or 12 h
[15] = DFU or DFP 10^-9-10^-3 M, 1 h, cultured astrocytes

SMILES: CC(N)Cc1ccc(Cl)cc1 (centres unmarked) [PCA, para-chloroamphetamine]
- KPI-containing APP isoforms in brain tissue [1]: increased
- brain APP holoprotein levels [1]: increased; also recorded: significant increases
- serotonin release in the striatum [2]: compromised

SMILES: COc1ccc2c(c1)c(CC(=O)O)c(C)n2C(=O)c1ccc(Cl)cc1 [indomethacin]
- cognitive decline versus placebo, battery of cognitive tests [3]: appeared to protect

SMILES: NC[C@H](O)c1ccc(O)c(O)c1 [NE, norepinephrine]
- PI hydrolysis [4]: significantly increased
- cAMP formation ([5]; NE 50 μM, 1 h): significantly increased
- glial fibrillary acidic protein immunoreactivity ([6]; 8Br-cAMP or NE): increase
- APP mRNA levels versus untreated cells ([7]; 24 h, NE 50 or 100 μM, isoproterenol 50 μM, Northern blot): about 1.7 fold
- APP mRNA level versus NE concentration ([7]; NE 50-400 μM): do not increase linearly
- APP mRNA, of untreated cells ([7]; NE 50 or 100 μM, isoproterenol 50 μM): 180%
- APP holoprotein in cell lysates, of that seen in untreated cells ([8]; 8Br-cAMP or NE, antibodies 22C11 and R37): 200%
- amount of cell-associated APP holoprotein relative to untreated cells ([8]; NE 50 μM, about 24 h, Western blot): ~1.7 fold
- cell-associated APP relative to untreated control cells ([8]; NE 50 μM, mAb22C11, p<0.05): significantly more
- APP holoprotein level versus NE concentration ([8]; NE 50-400 μM): do not increase linearly
- process formation in astrocytes [9]: increase

SMILES: CC(C)OC1=C(c2ccc(S(C)(=O)=O)cc2)C(C)(C)OC1=O [DFP, 5,5-dimethyl-3-isopropyloxy-4-(4′-methylsulfonylphenyl)-2(5H)-furanone]
- APPs secretion [10]: promotes
- levels of cellular APP holoprotein [8, 15]: decreases
- secretion of soluble APPs [11, 15]: increases
- levels of amyloidogenic APP holoprotein [12]: decreases

SMILES: CCCC(=O)Nc1ncnc2c1ncn2[C@@H]1O[C@@H]2COP(=O)(O)O[C@H]2[C@H]1OC(=O)CCC [dibutyryl cAMP]
- APP mRNA [13]: increased

SMILES: CCCCC[C@H](O)/C=C/[C@H]1[C@H](O)CC(=O)[C@@H]1C/C=C\CCCC(=O)O [PG E2, prostaglandin E2]
- effect on APP synthesis, shorter treatment [14]: did not reliably increase
- cellular cAMP levels compared to untreated cells ([5]; 1 μg PG E2 (so in the source)): 27 fold
- cellular cAMP levels compared to untreated cells ([5]; 10 μg PG E2 (so in the source)): 106 fold
- cellular cAMP levels compared to untreated cells ([5]; 100 μg PG E2 (so in the source)): 227 fold
- cAMP production ([5]; PG E2 0.1 μM): did not stimulate
- cAMP versus PG E2 concentration ([5]; PG E2 1, 10 or 100 μM): Concentration-dependent elevations
- levels of GFAP ([6]; PG E2 treatment): increased
- effect on APP mRNA ([7]; PG E2 0.1 μM): did not significantly alter; also recorded: not 0.1 μM PG E2
- astrocytic APP mRNA relative to untreated cells ([7]; PG E2 1, 10 or 100 μM, 24 h): significantly increased; also recorded: stimulated increases
- effect on APP holoprotein ([8]; PG E2 0.1 μM): did not significantly alter; also recorded: not 0.1 μM PG E2
- cellular APP holoprotein, of untreated control cells ([8]; PG E2 1 μM, 24 h): 1.4 fold
- cellular APP holoprotein, of untreated control cells ([8]; PG E2 10 μM, 24 h): 1.9 fold
- cellular APP holoprotein, of untreated control cells ([8]; PG E2 100 μM, 24 h): 2.3 fold
- effect on APP holoprotein ([8]; PG E2 1, 10 or 100 μM, 24 h): stimulated increases
- KPI-containing APP isoforms ([8]; PG E2 treatment, antiserum R98): increases
- APP secreted in the media ([11]; PG E2 1, 10 or 100 μM, 24 h, mAb 22C11, R37 or C8): increased
- APP holoprotein (~130 kD) in the media ([11]; PG E2, 24 h, antisera C8): increased amounts
- process formation in astrocytes [9]: induced
